# Target: T1, human EGF-receptor kinase (Homo sapiens, UniProt P00533)
# T1 construct: GST; made in house; host or cells: Sf9 insect cells (baculovirus)
# Assay: Inhibition of human EGF-receptor kinase (ELISA, bio-pEY substrate)
# Assay type: biochemical
# Details: cytoplasmic tyrosine kinase domain (Met664-Ala1186) as GST fusion protein; substrate pEY (4:1)/bio-pEY; 30 minutes at ambient temperature
# Description: To do this, the protein was expressed in Sf9 insect cells as a GST fusion protein using the Baculovirus expression system.
# The enzyme activity was measured in the presence or absence of the test compounds in serial dilutions. The polymer pEY (4:1) produced by SIGMA was used as the substrate. Biotinylated pEY (bio-pEY) was added as the tracer substrate. Every 100 μl of reaction solution contained 10 μl of the inhibitor in 50% DMSO, 20 μl of the substrate solution (200 mM HEPES pH 7.4, 50 mM magnesium acetate, 2.5 mg/ml poly(EY), 5 μg/ml bio-pEY) and 20 μl of enzyme preparation. The enzyme reaction was started by the addition of 50 μl of a 100 μM ATP solution in 10 mM magnesium chloride. The dilution of the enzyme preparation was adjusted so that the incorporation of phosphate into the bio-pEY was linear in terms of time and quantity of enzyme. The enzyme preparation was diluted in 20 mM HEPES pH 7.4, 1 mM EDTA, 130 mM common salt, 0.05% Triton X-100, 1 mM DTT and 10% glycerol.
# The enzyme assays were carried out at ambient temperature over a period of 30 minutes and were ended by the addition of 50 μl of a stopping solution (250 mM EDTA in 20 mM HEPES pH 7.4). 100 μl were placed on a streptavidin-coated microtiter plate and incubated for 60 minutes at ambient temperature. Then the plate was washed with 200 μl of a washing solution (50 mM Tris, 0.05% Tween 20). After the addition of 100 μl of a HRPO-labelled anti-PY antibody (PY20H Anti-PTyr:HRP produced by Transduction Laboratories, 250 ng/ml), it was incubated for 60 minutes. Then the microtiter plate was washed three times with 200 μl of washing solution. The samples were then combined with 100 μl of a TMB-peroxidase solution (A:B=1:1, Kirkegaard Perry Laboratories). After 10 minutes, the reaction was stopped. The extinction was measured at OD450nm with an ELISA reader. All data points were measured three times.
# The data were matched by means of an iterative calculation using an analytical program for sigmoidal curves (Graph Pad Prism Version 3.0) with variable Hill pitch.
# T1 sequence (P00533 688-1210): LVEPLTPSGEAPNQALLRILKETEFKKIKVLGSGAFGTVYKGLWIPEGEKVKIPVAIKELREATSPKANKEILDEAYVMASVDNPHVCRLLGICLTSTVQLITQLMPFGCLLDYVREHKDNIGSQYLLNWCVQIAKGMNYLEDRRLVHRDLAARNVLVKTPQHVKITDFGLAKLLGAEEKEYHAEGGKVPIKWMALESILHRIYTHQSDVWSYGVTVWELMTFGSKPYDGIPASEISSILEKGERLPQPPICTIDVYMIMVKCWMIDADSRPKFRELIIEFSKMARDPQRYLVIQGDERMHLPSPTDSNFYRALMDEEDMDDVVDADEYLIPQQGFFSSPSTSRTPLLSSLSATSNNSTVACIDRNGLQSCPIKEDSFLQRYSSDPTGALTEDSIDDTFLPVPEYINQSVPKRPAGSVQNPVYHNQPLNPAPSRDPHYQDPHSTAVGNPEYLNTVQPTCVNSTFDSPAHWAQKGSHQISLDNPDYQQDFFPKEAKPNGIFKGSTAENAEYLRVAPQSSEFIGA
row,SMILES,IC50 [nM]
1,"CN(C)CC=CC(=O)Nc1cc2c(Nc3ccc(F)c(Cl)c3)ncnc2cc1OC1CCCC1 [1 (2), 4-[(3-chloro-4-fluorophenyl)amino]-6-{[4-(N,N-dimethylamino)-1-oxo-2-buten-1-yl]amino}-7-cyclopentyloxyquinazoline]",0.6
2,"COCCN(CC=CC(=O)Nc1cc2c(N[C@H](C)c3ccccc3)ncnc2cc1OCC1CC1)CCOC [1 (3), 4-[(R)-(1-phenylethyl)amino]-6-{[4-(N,N-bis(2-methoxyethyl)amino)-1-oxo-2-buten-1-yl]amino}-7-cyclopropylmethoxyquinazoline]",4
3,"COCCN(C)CC=CC(=O)Nc1cc2c(N[C@H](C)c3ccccc3)ncnc2cc1OCC1CC1 [1 (5), 4-[(R)-(1-phenylethyl)amino]-6-({4-[N-(2-methoxyethyl)-N-methylamino]-1-oxo-2-buten-1-yl}amino)-7-cyclopropylmethoxyquinazoline]",3
4,"CN(CC=CC(=O)Nc1cc2c(Nc3ccc(F)c(Cl)c3)ncnc2cc1OC1CCCC1)C1CC1 [1 (22), 4-[(3-chloro-4-fluorophenyl)amino]-6-{[4-(N-cyclopropyl-N-methylamino)-1-oxo-2-buten-1-yl]amino}-7-cyclopentyloxyquinazoline]",1
5,"CN(C)CC=CC(=O)Nc1cc2c(Nc3ccc(F)c(Cl)c3)ncnc2cc1OC[C@@H]1CCCO1 [1 (32), 4-[(3-chloro-4-fluorophenyl)amino]-6-{[4-(N,N-dimethylamino)-1-oxo-2-buten-1-yl]amino}-7-[(s)-(tetrahydrofuran-2-yl)methoxy]quinazoline]",0.3
6,"CCN(C)CC=CC(=O)Nc1cc2c(Nc3ccc(F)c(Cl)c3)ncnc2cc1O[C@H]1CCOC1 [1 (33), 4-[(3-chloro-4-fluorophenyl)amino]-6-{[4-(N-ethyl-N-methylamino)-1-oxo-2-buten-1-yl]amino}-7-[(s)-(tetrahydrofuran-3-yl)oxy]quinazoline]",0.5
7,"CC(C)N(C)CC=CC(=O)Nc1cc2c(Nc3ccc(F)c(Cl)c3)ncnc2cc1O[C@H]1CCOC1 [1 (34), 4-[(3-chloro-4-fluorophenyl)amino]-6-{[4-(N-isopropyl-N-methylamino)-1-oxo-2-buten-1-yl]amino}-7-[(s)-(tetrahydrofuran-3-yl)oxy]quinazoline]",0.4
8,"COCCN(C)CC=CC(=O)Nc1cc2c(Nc3ccc(F)c(Cl)c3)ncnc2cc1OCC1CC1 [Example 1, [(3-chloro-4-fluorophenyl)amino]-6-({4-[N-(2-methoxyethyl)-N-methylamino]-1-oxo-2-buten-1-yl}amino)-7-cyclopropylmethoxyquinazoline]",0.7

# Tested on: not given
# Assay: not given
# Details: not given
row,SMILES,melting point [°C]
1,"CN(CC=CC(=O)Nc1cc2c(Nc3ccc(F)c(Cl)c3)ncnc2cc1OC1CCCC1)C1CC1 [1 (22), 4-[(3-chloro-4-fluorophenyl)amino]-6-{[4-(N-cyclopropyl-N-methylamino)-1-oxo-2-buten-1-yl]amino}-7-cyclopentyloxyquinazoline]",140
2,"CCN(C)CC=CC(=O)Nc1cc2c(Nc3ccc(F)c(Cl)c3)ncnc2cc1O[C@H]1CCOC1 [1 (33), 4-[(3-chloro-4-fluorophenyl)amino]-6-{[4-(N-ethyl-N-methylamino)-1-oxo-2-buten-1-yl]amino}-7-[(s)-(tetrahydrofuran-3-yl)oxy]quinazoline]",154 to 157
3,"CN(CC=CC(=O)Nc1cc2c(Nc3ccc(F)c(Cl)c3)ncnc2cc1OCC1CC1)C[C@H]1CCCO1 [Example 1 (19), 4-[(3-chloro-4-fluorophenyl)amino]-6-[(4-{(R)—N-[(tetrahydrofuran-2-yl)methyl]-N-methylamino}-1-oxo-2-buten-1-yl)amino]-7-cyclopropylmethoxyquinazoline]",149 to 153
4,"CN(CC=CC(=O)Nc1cc2c(Nc3ccc(F)c(Cl)c3)ncnc2cc1OCC1CC1)CC1CCOCC1 [Example 1 (24), 4-[(3-chloro-4-fluorophenyl)amino]-6-[(4-{N-[(tetrahydropyran-4-yl)methyl]-N-methylamino}-1-oxo-2-buten-1-yl)amino]-7-cyclopropylmethoxyquinazoline]",141
5,"CN(CC=CC(=O)Nc1cc2c(Nc3ccc(F)c(Cl)c3)ncnc2cc1OC1CCCC1)C[C@H]1CCCO1 [Example 1 (26), 4-[(3-chloro-4-fluorophenyl)amino]-6-[(4-{(R)—N-[(tetrahydrofuran-2-yl)methyl]-N-methylamino}-1-oxo-2-buten-1-yl)amino]-7-cyclopentyloxyquinazoline]",117 to 121
6,"O=C(C=CCN1CCOCC1)Nc1cc2c(Nc3ccc(F)c(Cl)c3)ncnc2cc1OCC1CCOCC1 [Example 1 (29), 4-[(3-chloro-4-fluorophenyl)amino]-6-{[4-(morpholin-4-yl)-1-oxo-2-buten-1-yl]amino}-7-[(tetrahydropyran-4-yl)methoxy]quinazoline]",174
7,"COCCN(CC=CC(=O)Nc1cc2c(Nc3ccc(F)c(Cl)c3)ncnc2cc1OCC1CCOCC1)CCOC [Example 1 (30), 4-[(3-chloro-4-fluorophenyl)amino]-6-({4-[N,N-bis(2-methoxyethyl)amino]-1-oxo-2-buten-1-yl}amino)-7-[(tetrahydropyran-4-yl)methoxy]quinazoline]",100 to 102
8,"CN(C)CC=CC(=O)Nc1cc2c(Nc3ccc(F)c(Cl)c3)ncnc2cc1OC[C@H]1CCCO1 [Example 1 (31), 4-[(3-chloro-4-fluorophenyl)amino]-6-{[4-(N,N-dimethylamino)-1-oxo-2-buten-1-yl]amino}-7-[(R)-(tetrahydrofuran-2-yl)methoxy]quinazoline]",110 to 112
9,"O=C(C=CCN1CCOCC1)Nc1cc2c(Nc3ccc(F)c(Cl)c3)ncnc2cc1O[C@H]1CCOC1 [Example 1 (35), 4-[(3-chloro-4-fluorophenyl)amino]-6-{[4-(morpholin-4-yl)-1-oxo-2-buten-1-yl]amino}-7-[(s)-(tetrahydrofuran-3-yl)oxy]quinazoline]",184 to 185
